From US20120245108A1, “METHOD OF MODULATING COMPLEMENT FACTOR B (CFB) EXPRESSION IN CELLS” (KAOHSIUNG MEDICAL UNIVERSITY, priority 2011, published 2012)

Legend:
phospho-STAT3(Tyr705) = test: Phospho-STAT3(Tyr705) immunoblotting in ARPE-19 cells; type: cell-based, human
Method: (§1) ARPE-19 (CRL-2302, human retinal pigment epithelial cells, American Type Culture Collection, Manassas, Va.) cells were cultured in 1:1 mixture of Dulbecco's modified Eagle's medium and HAM F-12 nutrient mixture supplemented with 10% fetal bovine serum at 37° C., 5% CO2, and 90% relative humidity. Confluent cells (90% confluence) were used throughout the experiments. Culture materials were obtained from Gibco-BRL (Rockville, Md.). Tannic acid, AG490 and all other reagents were obtained from Sigma Chemical Co. (St. Louis, Mo.).
(§2) The source of UVB radiation was performed using the EL series of UV lamp (UVP Inc., San Gabriel, Calif., USA). One hundred percent energy emission was at wavelength 302 nm with a radiation intensity of 1.04 mW/cm^2 in a lamp and a target distance of 15 cm was measured by a UVX Digital Radiometer (UVP Inc.).
Total cell lysates were resolved by 10% sodium dodecyl sulfate-polyacryl amide gel electrophoresis, transferred to membranes and blocked, and then probed phospho-STAT3(Tyr705) and STAT3 (Cell Signaling Technology, Danvers, Mass.) antibodies. To control for protein loading, all blots were probed with GAPDH (Millipore, Billerica, Mass.) as well. The bands were detected using the enhanced chemiluminescence system (Millipore, Billerica, Mass.).

CFB mRNA = CFB mRNA expression in ARPE-19 cells by real-time RT-PCR; type: cell-based, human; conditions: for UVB-induced CFB mRNA expression: 10 mJ/cm^2 UVB, 24 h, ARPE-19 cells, TA 25 μM, AG490 40 μM in 0.2% DMSO, normalized to GAPDH
Method: as §1, §2
The total RNA was isolated from ARPE-19 cells and cells exposed to UVB radiation (5-15 mJ/cm^2) for 24 hr using TRIzol Reagent (invitrogen). One μg of total RNA was subject to reverse transcriptase RT-PCR by using RT-PCR kit (Applied Biosystems). The primers used for detecting mRNA for IL-6 were 5′-CCTGCAAG ACCATCGACATG-3′ (forward, SEQ ID NO. 1) and 5′-[…]-3′ (reverse, SEQ ID NO. 2); CFB were 5′-[…]-3′ (forward, SEQ ID NO. 3) and 5′-[…]-3 (reverse, SEQ ID NO. 4); STAT3 were 5′-[…]-3′ (forward, SEQ ID NO. 5) and 5′-[…]-3′ (reverse, SEQ ID NO. 6); JAK2 were 5′-GCTCAGTGGCGGCATGAT-3′ (forward, SEQ ID NO. 7) and 5′-[…]-3′ (reverse, SEQ ID NO. 8); GAPDH were 5′-AACAGCGACACCCATCCTC-3′ (forward, SEQ ID NO. 9) and 5′-[…]-3′ (reverse, SEQ ID NO. 10). Real-time PCR was performed in a Gene Amp 7900® Sequence Detection System SDS (Applied Biosystems, Foster City, Calif., USA) using SYBR® Green PCR Master Mix Applied Biosystems. The relative gene expression is the comparative CT method. Each sample was normalized on the basis of its GAPDH content according to the formula 2^−ΔΔCT.

JAK/STAT signaling = conditions: Samardzija et al. 2006; cited from earlier work
IL-6 = IL-6 protein production in ARPE-19 cell culture supernatants by ELISA; type: cell-based, human; conditions: TA 25 μM, 10 mJ/cm^2 UVB, 24 hours, ARPE-19 cells
Method: as §1, §2
ARPE-19 cells were plated about 200,000 cells in a 3-cm dish and cultured for 18-24 hours. Cells were exposed to UVB radiation for 24 hours, 1 ml aliquots of cell culture supernatants were drawn off and frozen at −80° C. ELISAs were carried out with the OptEIA human IL-6 ELISA kit (BD Pharmingen) according to the manufacturer's instructions. […] Freshly diluted rIL-6 which is useful as a standard control was used to generate a standard curve on each plate analyzed. Plates were read at 450 nm using a spectrophotometric plate reader. […]

Row | Compound | STAT3 phosphorylation on Tyr705 (phospho-STAT3(Tyr705); AG490 40 μM, data not shown) | UVB-induced CFB mRNA expression (CFB mRNA) | JAK/STAT signaling (JAK/STAT signaling) | retinal degeneration after bright light exposure (JAK/STAT signaling) | attenuation of UVB-induced IL-6 protein production (IL-6) | UVB-induced STAT3 phosphorylation on Tyr705 (phospho-STAT3(Tyr705); TA 25 μM, UVB, 24 hours, ARPE-19 (RPE) cells) | STAT3 phosphorylation without UV radiation (phospho-STAT3(Tyr705); without UV radiation) | CFB expression without UV radiation (CFB mRNA; without UV radiation)
1 | N#C/C(=C/c1ccc(O)c(O)c1)C(=O)NCc1ccccc1 [AG490, reference compound] | inhibit | partly attenuated | inhibit | prevent | – | – | – | –
2 | O=C(OC[C@H]1O[C@@H](OC(=O)c2cc(O)c(O)c(OC(=O)c3cc(O)c(O)c(O)c3)c2)[C@H](OC(=O)c2cc(O)c(O)c(OC(=O)c3cc(O)c(O)c(O)c3)c2)[C@@H](OC(=O)c2cc(O)c(O)c(OC(=O)c3cc(O)c(O)c(O)c3)c2)[C@@H]1OC(=O)c1cc(O)c(O)c(OC(=O)c2cc(O)c(O)c(O)c2)c1)c1cc(O)c(O)c(OC(=O)c2cc(O)c(O)c(O)c2)c1 [TA, Tannic acid] | – | attenuate | – | – | approximately 40% | substantially attenuated | reduce | reduce
